# Reference: publication PMC11191095, “QSAR Reveals Decreased Lipophilicity of Polar Residues Determines the Selectivity of Antimicrobial Peptide Activity” (ACS Omega, 2024)
# Where a SMILES comes first, the peptide text is derived from it.
# Key:
# Experiment in all cases: microbe, parasite or virus in culture
# [1] = system: C. auris TDG 1912; assay type: cell-based, Candida auris; conditions: C. auris TDG 1912
# Procedure, shortened: (§1)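 Peptides 128→2 μg/mL, 2-fold series; inoculum ~5 × 10^5 CFU/mL from overnight culture (OD600 0.01, mixed 1:1). MHB non-cation-adjusted for bacteria, RPMI 1640 + 2% glucose for fungi. 37 °C, 20 h, OD600. MIC50/MIC90 at 50%/90% inhibition; n ≥ 3.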
# [2] = system: E. coli LEC001; assay type: cell-based, Escherichia coli; conditions: E. coli LEC001 (R)
# Procedure, shortened: as §1
# [3] = system: E. coli NCTC 12923; assay type: cell-based, Escherichia coli; conditions: E. coli NCTC 12923 (S)
# Procedure, shortened: as §1
# [4] = system: A. baumannii ATCC 17978; assay type: cell-based, Acinetobacter baumannii; conditions: A. baumannii ATCC 17978 (S)
# Procedure, shortened: as §1
# [5] = system: A. baumannii AYE; assay type: cell-based, Acinetobacter baumannii; conditions: A. baumannii AYE (R)
# Procedure, shortened: as §1
# [6] = system: P. aeruginosa NCTC 13437; assay type: cell-based, Pseudomonas aeruginosa; conditions: P. aeruginosa NCTC 13437 (R)
# Procedure, shortened: as §1
# [7] = system: C. glabrata NCPF 8018; assay type: cell-based; conditions: C. glabrata NCPF 8018
# Procedure, shortened: as §1
# [8] = system: C. albicans NCPF 3281; assay type: cell-based; conditions: C. albicans NCPF 3281
# Procedure, shortened: as §1
# [9] = system: C. parapsilosis NCPF 3209; assay type: cell-based; conditions: C. parapsilosis NCPF 3209
# Procedure, shortened: as §1
# [10] = system: C. krusei NCPF 3876; assay type: cell-based; conditions: C. krusei NCPF 3876
# Procedure, shortened: as §1
# [11] = system: S. aureus (MRSA) USA300; assay type: cell-based, Staphylococcus aureus; conditions: S. aureus (MRSA) USA300 (R)
# Procedure, shortened: as §1
# [12] = system: S. aureus (MSSA) ATCC 9144; assay type: cell-based, Staphylococcus aureus; conditions: S. aureus (MSSA) ATCC 9144 (S)
# Procedure, shortened: as §1
# [13] = system: S. aureus (MRSA) NCTC 13616; assay type: cell-based, Staphylococcus aureus; conditions: S. aureus (MRSA) NCTC 13616 (R)
# Procedure, shortened: as §1
# [14] = system: S. aureus (MRSA) 1199B; assay type: cell-based, Staphylococcus aureus; conditions: S. aureus (MRSA) 1199B (R)
# Procedure, shortened: as §1
# [15] = system: K. pneumoniae M6; assay type: cell-based, Klebsiella pneumoniae; conditions: K. pneumoniae M6 (S)
# Procedure, shortened: as §1
# [16] = system: K. pneumoniae NCTC 13368; assay type: cell-based, Klebsiella pneumoniae; conditions: K. pneumoniae NCTC 13368 (R)
# Procedure, shortened: as §1
# [17] = 50% growth inhibition, RPMI 1640 + 2% glucose, 37 °C, 20 h, OD600
# [18] = 90% growth inhibition, RPMI 1640 + 2% glucose, 37 °C, 20 h, OD600
# [19] = MHB, 37 °C, 20 h, OD600, min. three biological repeats
# [20] = MHB, ~5×10^5 CFU/mL, 37 °C, 20 h, OD600, min. three biological repeats
# [21] = 50% growth inhibition, RPMI 1640 + 2% glucose, 37 °C, 20 h
# [22] = 90% growth inhibition, RPMI 1640 + 2% glucose, 37 °C, 20 h
smiles,measurement,setting,value
CC[C@H](C)[C@H](N)C(=O)N[C@@H](CCCNC(=N)N)C(=O)NCC(=O)N[C@@H](Cc1ccc(O)cc1)C(=O)N[C@@H](CCCCN)C(=O)NCC(=O)NCC(=O)N[C@@H](Cc1ccc(O)cc1)C(=O)N[C@@H](CS)C(=O)N[C@@H](CCCCN)C(N)=O [Os(3-12)a] (H-IRGYKGGYCK-NH2),Modal MIC50,[1]; [17],> 128 µg/mL
same,Modal MIC90,[1]; [18],> 128 µg/mL
same,Modal MIC50,[1]; shown in µM,> 112 µM
same,Modal MIC90,[1]; shown in µM,> 112 µM
same,Modal MIC,[2]; [19],> 128 µg/mL
same,Modal MIC,[2]; shown in µM,> 112 µM
same,Modal MIC,[3]; [20],> 128 µg/mL
same,Modal MIC,[3]; shown in µM,> 112 µM
same,Modal MIC,[4]; [19],> 128 µg/mL
same,Modal MIC,[4]; shown in µM,> 112 µM
same,Modal MIC,[5]; [19],> 128 µg/mL
same,Modal MIC,[5]; shown in µM,> 112 µM
same,Modal MIC,[6]; [19],> 128 µg/mL
same,Modal MIC,[6]; shown in µM,> 112 µM
same,Modal MIC50,[7]; [21],> 128 µg/mL
same,Modal MIC90,[7]; [22],> 128 µg/mL
same,Modal MIC50,[7]; shown in µM,> 112 µM
same,Modal MIC90,[7]; shown in µM,> 112 µM
same,Modal MIC50,[8]; [21],> 128 µg/mL
same,Modal MIC90,[8]; [22],> 128 µg/mL
same,Modal MIC50,[8]; shown in µM,> 112 µM
same,Modal MIC90,[8]; shown in µM,> 112 µM
same,Modal MIC50,[9]; [21],> 128 µg/mL
same,Modal MIC90,[9]; [22],> 128 µg/mL
same,Modal MIC50,[9]; shown in µM,> 112 µM
same,Modal MIC90,[9]; shown in µM,> 112 µM
same,Modal MIC50,[10]; [21],> 128 µg/mL
same,Modal MIC90,[10]; [22],> 128 µg/mL
same,Modal MIC50,[10]; shown in µM,> 112 µM
same,Modal MIC90,[10]; shown in µM,> 112 µM
same,Modal MIC,[11]; [19],> 128 µg/mL
same,Modal MIC,[11]; shown in µM,> 112 µM
same,Modal MIC,[12]; [19],> 128 µg/mL
same,Modal MIC,[12]; shown in µM,> 112 µM
same,Modal MIC,[13]; [19],> 128 µg/mL
same,Modal MIC,[13]; shown in µM,> 112 µM
same,Modal MIC,[14]; [19],> 128 µg/mL
same,Modal MIC,[14]; shown in µM,> 112 µM
same,Modal MIC,[15]; [19],> 128 µg/mL
same,Modal MIC,[15]; shown in µM,> 112 µM
same,Modal MIC,[16]; [19],> 128 µg/mL
same,Modal MIC,[16]; shown in µM,> 112 µM
CC[C@H](C)[C@H](NC(=O)[C@H](CCCCN)NC(=O)[C@H](CC(C)C)NC(=O)[C@H](C)NC(=O)[C@H](C)NC(=O)[C@H](CCCCN)NC(=O)[C@H](CC(C)C)NC(=O)[C@H](C)NC(=O)[C@@H](N)CCCCN)C(=O)NCC(N)=O [CPF-P3-10a] (H-KALKAALKIG-NH2),Modal MIC50,[1]; [17],> 128 µg/mL
same,Modal MIC90,[1]; [18],> 128 µg/mL
same,Modal MIC50,[1]; shown in µM,> 122 µM
same,Modal MIC90,[1]; shown in µM,> 122 µM
same,Modal MIC,[2]; [19],> 128 µg/mL
same,Modal MIC,[2]; shown in µM,> 122 µM
same,Modal MIC,[3]; [20],> 128 µg/mL
same,Modal MIC,[3]; shown in µM,> 122 µM
same,Modal MIC,[4]; [19],> 128 µg/mL
same,Modal MIC,[4]; shown in µM,> 122 µM
same,Modal MIC,[5]; [19],> 128 µg/mL
same,Modal MIC,[5]; shown in µM,> 122 µM
same,Modal MIC,[6]; [19],> 128 µg/mL
same,Modal MIC,[6]; shown in µM,> 122 µM
same,Modal MIC50,[7]; [21],> 128 µg/mL
same,Modal MIC90,[7]; [22],> 128 µg/mL
same,Modal MIC50,[7]; shown in µM,> 122 µM
same,Modal MIC90,[7]; shown in µM,> 122 µM
same,Modal MIC50,[8]; [21],> 128 µg/mL
same,Modal MIC90,[8]; [22],> 128 µg/mL
same,Modal MIC50,[8]; shown in µM,> 122 µM
same,Modal MIC90,[8]; shown in µM,> 122 µM
same,Modal MIC50,[9]; [21],> 128 µg/mL
same,Modal MIC90,[9]; [22],> 128 µg/mL
same,Modal MIC50,[9]; shown in µM,> 122 µM
same,Modal MIC90,[9]; shown in µM,> 122 µM
same,Modal MIC50,[10]; [21],> 128 µg/mL
same,Modal MIC90,[10]; [22],> 128 µg/mL
same,Modal MIC50,[10]; shown in µM,> 122 µM
same,Modal MIC90,[10]; shown in µM,> 122 µM
same,Modal MIC,[11]; [19],> 128 µg/mL
same,Modal MIC,[11]; shown in µM,> 122 µM
same,Modal MIC,[12]; [19],> 128 µg/mL
same,Modal MIC,[12]; shown in µM,> 122 µM
same,Modal MIC,[13]; [19],> 128 µg/mL
same,Modal MIC,[13]; shown in µM,> 122 µM
same,Modal MIC,[14]; [19],> 128 µg/mL
same,Modal MIC,[14]; shown in µM,> 122 µM
same,Modal MIC,[15]; [19],> 128 µg/mL
same,Modal MIC,[15]; shown in µM,> 122 µM
same,Modal MIC,[16]; [19],> 128 µg/mL
same,Modal MIC,[16]; shown in µM,> 122 µM
CC[C@H](C)[C@H](NC(=O)CNC(=O)[C@@H](N)CCCCN)C(=O)N[C@@H](CCCNC(=N)N)C(=O)NCC(=O)N[C@@H](Cc1ccc(O)cc1)C(=O)N[C@@H](CCCCN)C(=O)NCC(=O)NCC(=O)N[C@@H](Cc1ccc(O)cc1)C(=O)N[C@@H](CS)C(=O)N[C@@H](CCCCN)C(=O)NCC(=O)N[C@@H](C)C(=O)N[C@@H](Cc1ccccc1)C(=O)N[C@@H](CCCCN)C(=O)N[C@@H](CCC(N)=O)C(=O)N[C@H](C(=O)N[C@@H](CS)C(=O)N[C@@H](CCCCN)C(=O)N[C@@H](CS)C(=O)N[C@@H](Cc1ccc(O)cc1)C(=O)O)[C@@H](C)O [Os] (H-KGIRGYKGGYCKGAFKQTCKCY-OH; N-terminus and C-terminus assumed),Modal MIC50,[1]; [17],> 128 µg/mL
same,Modal MIC90,[1]; [18],> 128 µg/mL
same,Modal MIC50,[1]; shown in µM,> 51.7 µM
same,Modal MIC90,[1]; shown in µM,> 51.7 µM
same,Modal MIC,[2]; [19],> 128 µg/mL
same,Modal MIC,[2]; shown in µM,> 51.7 µM
same,Modal MIC,[3]; [20],> 128 µg/mL
same,Modal MIC,[3]; shown in µM,> 51.7 µM
same,Modal MIC,[4]; [19],> 128 µg/mL
same,Modal MIC,[4]; shown in µM,> 51.7 µM
same,Modal MIC,[5]; [19],> 128 µg/mL
same,Modal MIC,[5]; shown in µM,> 51.7 µM
same,Modal MIC,[6]; [19],> 128 µg/mL
same,Modal MIC,[6]; shown in µM,> 51.7 µM
same,Modal MIC50,[7]; [21],> 128 µg/mL
same,Modal MIC90,[7]; [22],> 128 µg/mL
same,Modal MIC50,[7]; shown in µM,> 51.7 µM
same,Modal MIC90,[7]; shown in µM,> 51.7 µM
same,Modal MIC50,[8]; [21],> 128 µg/mL
same,Modal MIC90,[8]; [22],> 128 µg/mL
same,Modal MIC50,[8]; shown in µM,> 51.7 µM
same,Modal MIC90,[8]; shown in µM,> 51.7 µM
same,Modal MIC50,[9]; [21],> 128 µg/mL
same,Modal MIC90,[9]; [22],> 128 µg/mL
same,Modal MIC50,[9]; shown in µM,> 51.7 µM
same,Modal MIC90,[9]; shown in µM,> 51.7 µM
same,Modal MIC50,[10]; [21],> 128 µg/mL
same,Modal MIC90,[10]; [22],> 128 µg/mL
same,Modal MIC50,[10]; shown in µM,> 51.7 µM
same,Modal MIC90,[10]; shown in µM,> 51.7 µM
same,Modal MIC,[11]; [19],> 128 µg/mL
same,Modal MIC,[11]; shown in µM,> 51.7 µM
same,Modal MIC,[12]; [19],> 128 µg/mL
same,Modal MIC,[12]; shown in µM,> 51.7 µM
same,Modal MIC,[13]; [19],> 128 µg/mL
same,Modal MIC,[13]; shown in µM,> 51.7 µM
same,Modal MIC,[14]; [19],> 128 µg/mL
same,Modal MIC,[14]; shown in µM,> 51.7 µM
same,Modal MIC,[15]; [19],> 128 µg/mL
same,Modal MIC,[15]; shown in µM,> 51.7 µM
same,Modal MIC,[16]; [19],> 128 µg/mL
same,Modal MIC,[16]; shown in µM,> 51.7 µM
